Experimental data as given in patent US20230045509A1, “PHARMACEUTICAL COMPOSITIONS COMPRISING CABOTEGRAVIR” (ViiV Healthcare Company, priority 2019, published 2023).

Columns and labels:
[1] = Wettability study to define limits of cabotegravir suspension strength; type: physicochemical
Experimental: Wettability of Cabotegravir in 38 mg/mL P338, 35 mg/mL PEG3350, and 20 mg/mL mannitol was assessed to estimate the approximate concentration limit for Cabotegravir suspension in this vehicle. This was performed by adding increasing amounts of Cab to 5 g of vehicle until a gross change in coarse suspension properties was observed.

HIV-1 strains = settings: integrase strand transfer inhibitor; background statement; cited from earlier work

Gross viscosity ([1]; 580† mg/mL Cabotegravir (calculated using approximated densities) in same vehicle): Boundary of thickening
Gross viscosity ([1]; 600† mg/mL Cabotegravir (calculated using approximated densities) in same vehicle): Thicker, but flowable
Gross viscosity ([1]; 635† mg/mL Cabotegravir (calculated using approximated densities) in same vehicle): Slightly paste-like
upper boundary of Cabotegravir solid suspension concentration ([1]; vehicle 38 mg/mL P338, 35 mg/mL PEG3350, 20 mg/mL mannitol): ≤ 600 mg/mL
Structure (SMILES): C[C@H]1CO[C@@H]2Cn3cc(C(=O)NCc4ccc(F)cc4F)c(=O)c(O)c3C(=O)N12 [Cabotegravir, N-((2,4-Difluorophenyl)methyl)-6-hydroxy-3-methyl-5,7-dioxo-2,3,5,7,11,11a hexahydro(1,3)oxazolo(3,2-a)pyrido(1,2-d)pyrazine-8-carboxamide]
potency (HIV-1 strains): subnanomolar potency
